The values that follow come from patent US9452997B2, “Piperidine and piperazine derivatives as autotaxin inhibitors” (Merck Patent GmbH, priority 2009, dated 2016).

pIC50: −log10 of the molar value.

In one assay the target is T1, Recombinant autotaxin (Homo sapiens, UniProt Q13822).
T1 construct: made in house; host or cells: Hi5 insect cells (baculovirus)
In words: Autotaxin assay (Amplex Red, LPC substrate). The assay is classed as biochemical. To be noted: % of control at 1E−05 (compound concentration); uninhibited control = 100%. The method, then:
Autotaxin activity is measured indirectly by means of Amplex Red Reagent. In this course, Amplex Red is measured as fluorogenic indicator for generated H2O2. Autotaxin converts substrate lysophosphatidylcholine (LPC) to phosphocholine and lysophosphatidylic acid (LPA). After the conversion phosphocholine is reacted with alkaline phosphatase to obtain inorganic phosphate and choline. During the next step choline is oxidized with choline oxidase to yield betaine, whereby H2O2 is generated. H2O2 reacts with Amplex Red Reagent in the presence of peroxidase (Horseradish peroxidase) in an 1:1 stochiometry and yields highly fluorescent resorufin. The generated fluorescence is measured in a reaction-dependent kinetic mode in order to enable subtraction of fluorescence signals of possible other fluorescent compounds that are not part of the reaction from total measured fluorescence.
1.5 μl of a standard solution or of the compounds of the invention are dissolved in 20 mM Hepes pH 7.2 with maximally 7.7% DMSO in individual concentrations. The resulting solution is pre-incubated together with 10 μl (16 ng) of highly purified recombinant autotaxin in a black 384-hole microtiter plate for 30 min at 22° C.
Thereafter, the reaction is started through the addition of 5 μL-a-lysophosphatidyl-choline (LPC), whereby the final concentration of LPC is 75 μM. The mixture is incubated for 90 min. at 37° C. After the incubation Amplex Red Reagent, peroxidase (Horseradish peroxidase) and choline oxidase are added. The fluorescence is immediately measured at a wavelength of 612 nm with an excitation wavelength of 485 nm in a “Tecan Ultra multimode” fluorescence reader. The activity of autotaxin is indirectly calculated via the amount of detected generated H2O2.
For IC50 analysis, ten serial 1:3 dilutions starting at 30 μM for each compound were run in duplicates.
IC50 values were calculated on normalized data. For normalization, control wells were added to each assay plate and the signal of uninhibited control wells was set to 100%, whereas the signal inhibited by 500 μM C14 LPA, (Avanti Polar Lipids, Cat#857120P) was set to 0%. Curves were fitted and IC50 values calculated by the following model using proprietory analysis software: Y=Bottom+(100−Bottom)/(1+10^((Log IC50−X)*HillSlope)) Where X is the logarithm of concentration. Y is the response; Y starts at Bottom and goes to Top with a sigmoid shape. Material
Microtiter plate: PS-Microplate, 384-hole, small volume, black Corning, Cat#3677
Protein: Recombinant autotaxin (baculoviral Hi5 expression)
Substrate: L-a-lysophosphatidyl choline (chicken egg); Avanti Polar Lipids #830071P
Standard: C14 LPA, Avanti Polar Lipids, Cat#857120P
Detection Reagent: Amplex Red Reagent; Invitrogen #A12222; dissolved in 1.923 ml of DMSO peroxidase Type VI-A (horseradish), Sigma #P6782; dissolved in 7.45 ml of test buffer, Choline Oxidase; Sigma #C5896; dissolved in 2.47 ml test buffer
Detection Reagent Mix: 1:100 dilution of Amplex Red Regent in test buffer
Test buffer: 200 mM Tris-HCl, Merck, Cat #1.08219, pH 7.9; 0.1% BSA, lipid free, Roche Cat#775835
Consider `CS(=O)(=O)c1ccc(CCC(=O)N2CCC(N3CCN(C(=O)c4ccc5[nH]nnc5c4)CC3)CC2)cc1` [Compound 88, 1-{4-[4-(1H-Benzotriazole-5-carbonyl)-piperazin-1-yl]-piperidin-1-yl}-3-(4-methanesulfonyl-phenyl)-propan-1-one], for which the “% CTRL (1E−05)” value was 89%.
Still for that read-out and setting: next, `O=C(Nc1ccc2[nH]nnc2c1)C1CC(=O)N(C2CCN(C(=O)OCC3CCCO3)CC2)C1` (stereo not shown) [Compound 27, 4-[4-(1H-Benzotriazol-5-ylcarbamoyl)-2-oxo-pyrrolidin-1-yl]-piperidine-1-carboxylic acid tetrahydro-furan-2-ylmethyl ester]: 83%.

Staying with this assay, now noted: recombinant autotaxin, LPC substrate, Amplex Red detection; values given as upper bounds.
One may read the pIC50 as the negative decadic logarithm of the IC50, by convention in mol/L. Consider `O=C(NCCc1cccnc1)C1CC(=O)N(C2CCN(C(=O)OCc3cc(Cl)cc(Cl)c3)CC2)C1` (stereo not shown) [Compound 30, 4-[2-Oxo-4-(2-pyridin-3-yl-ethylcarbamoyl)-pyrrolidin-1-yl]-piperidine-1-carboxylic acid 3,5-dichloro-benzyl ester], for which the negative-log IC50 (pIC50) was greater than 4.52.
Same read-out and setting: under `O=C(OCc1cc(Cl)cc(Cl)c1)N1CCC(NC2CCN(C(=O)c3ccc4[nH]nnc4c3)CC2)C1` (stereo not shown) [Compound 51, 3-[1-(1H-Benzotriazole-5-carbonyl)-piperidin-4-ylamino]-pyrrolidine-1-carboxylic acid 3,5-dichloro-benzyl ester] stands greater than 6.00.
The same measure, in the same setting: next, `O=C(CCc1ccccc1O)N1CCC(C2CCN(C(=O)c3ccccc3-c3cccc(C(F)(F)F)c3)CC2)CC1` [Compound 1, 3-(2-Hydroxy-phenyl)-1-[1′-(3′-trifluoromethyl-biphenyl-2-carbonyl)-[4,4′]bipiperidinyl-1-yl]-propan-1-one]: greater than 6.00.
The same measure, in the same setting: next, `CCc1ccc(COC(=O)N2CCN(C3CCN(C(=O)c4ccc5[nH]nnc5c4)CC3)CC2)cc1` [Compound 151, 4-[1-(1H-Benzotriazole-5-carbonyl)-piperidin-4-yl]-piperazine-1-carboxylic acid 4-ethyl-benzyl ester]: greater than 6.00; `O=C(OCc1cc(C(F)(F)F)ccc1F)N1CCC(N2CCN(C(=O)c3ccc4[nH]nnc4c3)CC2)CC1` [Compound 74, 4-[4-(1H-Benzotriazole-5-carbonyl)-piperazin-1-yl]-piperidine-1-carboxylic acid 2-fluoro-5-trifluoromethyl-benzyl ester]: greater than 5.00; `O=C(NCCc1ccncc1)C1CC(=O)N(C2CCN(C(=O)OCc3cc(Cl)cc(Cl)c3)CC2)C1` (stereo not shown) [Compound 28, 4-[2-Oxo-4-(2-pyridin-4-yl-ethylcarbamoyl)-pyrrolidin-1-yl]-piperidine-1-carboxylic acid 3,5-dichloro-benzyl ester]: greater than 5.00.
Turning to `O=C(OCc1ccc(SC(F)F)cc1)N1CCN(C2CCN(C(=O)c3ccc4[nH]nnc4c3)CC2)CC1` [Compound 168, 4-[1-(1H-Benzotriazole-5-carbonyl)-piperidin-4-yl]-piperazine-1-carboxylic acid 4-difluoromethylsulfanyl-benzyl ester], the negative-log IC50 (pIC50) was greater than 6.00.
Still for that read-out and setting: next, `O=C(Nc1cc(Cl)cc(Cl)c1)N1CCN(C2CCN(C(=O)c3ccc4[nH]nnc4c3)CC2)CC1` [Compound 31, 4-[1-(1H-Benzotriazole-5-carbonyl)-piperidin-4-yl]-piperazine-1-carboxylic acid (3,5-dichloro-phenyl)-amide]: greater than 4.52; `O=C(Nc1ccc(-n2cccn2)cc1)C1CC(=O)N(C2CCN(C(=O)OCc3cc(Cl)cc(Cl)c3)CC2)C1` (stereo not shown) [Compound 55, 4-[2-Oxo-4-(4-pyrazol-1-yl-phenylcarbamoyl)-pyrrolidin-1-yl]-piperidine-1-carboxylic acid 3,5-dichloro-benzyl ester]: greater than 5.00.
The same measure, in the same setting: under `O=C(OCC1CN(c2ccc(Cl)cc2)C(=O)O1)N1CCN(C2CCN(C(=O)c3ccc4[nH]nnc4c3)CC2)CC1` (stereo not shown) [Compound 175, 4-[1-(1H-Benzotriazole-5-carbonyl)-piperidin-4-yl]-piperazine-1-carboxylic acid 3-(4-chloro-phenyl)-2-oxo-oxazolidin-5-ylmethyl ester] stands greater than 5.00; under `O=C(OCc1cc(C(F)(F)F)cc(C(F)(F)F)c1)N1CCN(C2CCN(C(=O)c3ccc4[nH]c(=O)sc4c3)CC2)CC1` [Compound 163, 4-[1-(2-Oxo-2,3-dihydro-benzothiazole-6-carbonyl)-piperidin-4-yl]-piperazine-1-carboxylic acid 3,5-bis-trifluoromethyl-benzyl ester], greater than 6.00; under `O=C(c1ccc2[nH]nnc2c1)N1CCC(N2CCN(C(=O)c3nc4cc(C(F)(F)F)ccc4[nH]3)CC2)CC1` [Compound 52, (1H-Benzotriazol-5-yl)-{4-[4-(5-trifluoromethyl-1H-benzoimidazole-2-carbonyl)-piperazin-1-yl]-piperidin-1-yl}-methanone], greater than 5.00.
With `O=C(OCc1cc(Cl)cc(Cl)c1)N1CCC(N2CCN(C(=O)c3ccc4[nH]nnc4c3)CC2)CC1` [Compound 20, 4-[4-(1H-Benzotriazole-5-carbonyl)-piperazin-1-yl]-piperidine-1-carboxylic acid 3,5-dichloro-benzyl ester], the negative logarithm of the IC50 (pIC50) was greater than 6.00.
The same measure, in the same setting: next, `O=C(/C=C/c1cc(Cl)cc(Cl)c1)N1CCC(N2CCN(C(=O)c3ccc4[nH]nnc4c3)CC2)CC1` [Compound 90, (E)-1-{4-[4-(1H-Benzotriazole-5-carbonyl)-piperazin-1-yl]-piperidin-1-yl}-3-(3,5-dichloro-phenyl)-propenone]: greater than 6.00; `O=C(OCc1ccc(C(F)(F)F)c(F)c1F)N1CCC(N2CCN(C(=O)c3ccc4[nH]nnc4c3)CC2)CC1` [Compound 113, 4-[1-(1H-Benzotriazole-5-carbonyl)-piperidin-4-yl]-piperazine-1-carboxylic acid 2,3-dilfuoro-4-trifluoromethyl-benzyl ester]: greater than 6.00; `O=C(OCc1ccc(Cl)cc1)N1CCN(C2CCN(C(=O)c3ccc4[nH]nnc4c3)CC2)CC1` [Compound 42, 4-[1-(1H-Benzotriazole-5-carbonyl)-piperidin-4-yl]-piperazine-1-carboxylic acid 4-chloro-benzyl ester]: greater than 6.00.
Same read-out and setting: next, `O=C(Nc1ccc(-n2cncn2)cc1)C1CC(=O)N(C2CCN(C(=O)OCc3cc(Cl)cc(Cl)c3)CC2)C1` (stereo not shown) [Compound 54, 4-[2-Oxo-4-(4-[1,2,4]triazol-1-yl-phenylcarbamoyl)-pyrrolidin-1-yl]-piperidine-1-carboxylic acid 3,5-dichloro-benzyl ester]: greater than 5.00; `O=C(OCc1ccc(OC(F)(F)F)c(Cl)c1)N1CCN(C2CCN(C(=O)c3ccc4[nH]nnc4c3)CC2)CC1` [Compound 101, 4-[1-(1H-Benzotriazole-5-carbonyl)-piperidin-4-yl]-piperazine-1-carboxylic acid 3-chloro-4-trifluoromethoxy-benzyl ester]: greater than 6.00.
The same measure, in the same setting: next, `O=C(OCc1ccc(C(F)(F)F)cc1)N1CCN(CC2CCN(C(=O)c3ccc4[nH]nnc4c3)CC2)CC1` [Compound 109, 4-[1-(1H-Benzotriazole-5-carbonyl)-piperidin-4-ylmethyl]-piperazine-1-carboxylic acid 4-trifluoromethyl-benzyl ester]: greater than 5.00.
Turning to `O=C(OCc1ccc(SC(F)(F)F)cc1)N1CCN(C2CCN(C(=O)c3ccc4[nH]nnc4c3)CC2)CC1` [Compound 37, 4-[1-(1H-Benzotriazole-5-carbonyl)-piperidin-4-yl]-piperazine-1-carboxylic acid 4-trifluoromethylsulfanyl-benzyl ester], the negative-log IC50 (pIC50) is greater than 6.00.
